The record followed here is patent publication US8674095B2, “Compounds for treating neuropsychiatric conditions” (Afraxis Holdings, Inc., priority 2008, dated 2014).

pIC50: −log10 of the molar value. Where only a bound is given, the exact number is not on record here.

Format in all cases: biochemical
The target in one assay is PAK1 (Homo sapiens, UniProt Q13153). The assay is described as follows: Z'Lyte fluorescence-based (FRET) kinase assay, PAK1. The conditions noted are these: 50 μM ATP (Km apparent), 1 hr room temperature, 1% DMSO. On the procedure:
(§1) A fluorescence-based assay format is used to determine IC50 values of test compounds in vitro. Purified PAK kinase is incubated with ATP, and a test compound at various concentrations and a substrate peptide containing two fluorophores. In a second step, the reaction mix is incubated with a site-specific protease that cleaves non-phosphorylated but not phosphorylated substrate peptide, disrupting the FRET signal generated by the two fluorophores in the cleaved peptide (Z′Lyte™ Kinase assay platform; Life Technologies).
(§2) Reagents: 50 mM HEPES, pH 7.5; 0.01% BRIJ-35; 10 mM MgCl2; 1 mM EGTA, 2 uM substrate peptide Ser/Thr20 (proprietary Life Technologies Sequence), PAK enzyme [2.42-30.8 ng for PAK1, 0.29-6 ng for PAK2, 1.5-20 ng for PAK3 and 0.1-0.86 ng for PAK4; actual enzyme amounts depend on lot activity of the enzyme preparation]
(§3) Test compounds are dissolved in DMSO at various concentrations; the final DMSO concentration in the assay reaction is 1%.
(§4) ATP concentration at Km apparent is used in the assay [50 μM ATP for PAK1 assay, 75 μM ATP for PAK2 assay, 100 μM ATP for PAK3 assay, 5 μM ATP for PAK-4 assay] in a total assay volume of […] Assay reactions are incubated at room temperature for 1 hr. Following the kinase reaction, 5 μl of 1:256 dilution of development solution A (Life Technologies) is added and the reaction mix is incubated for an additional 1 hr at room temperature.
(§5) Plates are analyzed in a standard fluorescence plate reader (Tecan or equivalent) using an excitation wavelength of 400 nm and emission wavelengths of 445 nm and 520 nm. Inhibition of kinase reaction is determined by emission ratio=emission@445 nm/emission@520 nm

The next assay concerns the target PAK2 (Homo sapiens, UniProt Q13177). The assay is described as follows: Z'Lyte fluorescence-based (FRET) kinase assay, PAK2. The conditions noted are these: 75 μM ATP (Km apparent), 1 hr room temperature, 1% DMSO. On the procedure:
as §1, §2, §3, §4, §5

The next assay concerns the target PAK3 (Homo sapiens, UniProt O75914). Description: Z'Lyte fluorescence-based (FRET) kinase assay, PAK3. The conditions noted are these: 100 μM ATP (Km apparent), 1 hr room temperature, 1% DMSO. The procedure: as §1, §2, §3, §4, §5
A further assay addresses PAK4 (Homo sapiens, UniProt O96013). The assay is described as follows: Z'Lyte fluorescence-based (FRET) kinase assay, PAK4. The conditions noted are these: 5 μM ATP (Km apparent), 1 hr room temperature, 1% DMSO. On the procedure:
as §1, §2, §3, §4, §5

The test system of the next assay is PAK1, PAK2, PAK3, PAK-4. Description: PAK isoform inhibition profile of example compounds. The conditions noted are these: classification of example compounds in the description; underlying IC50 data in Table 8.
Description: In some embodiments, the PAK inhibitor is a Group I PAK inhibitor that inhibits, for example, one or more Group I PAK polypeptides, for example, PAK1, PAK2, and/or PAK3. […] In some embodiments, the PAK inhibitor is a PAK2 inhibitor. In some embodiments, the PAK inhibitor is a PAK3 inhibitor. In some embodiments, the PAK inhibitor is a mixed PAK1/PAK3 inhibitor. […] In some embodiments, the PAK inhibitor is a Group II PAK inhibitor that inhibits one or more Group II PAK polypeptides, for example PAK-4, PAK5, and/or PAK6. In some embodiments, the PAK inhibitor is a PAK4 inhibitor. In some embodiments, the PAK inhibitor is a PAK5 inhibitor. In some embodiments, the PAK inhibitor is a PAK6 inhibitor.
as §1, §2, §3, §4, §5

PAK4, sequence (O96013 whole entry): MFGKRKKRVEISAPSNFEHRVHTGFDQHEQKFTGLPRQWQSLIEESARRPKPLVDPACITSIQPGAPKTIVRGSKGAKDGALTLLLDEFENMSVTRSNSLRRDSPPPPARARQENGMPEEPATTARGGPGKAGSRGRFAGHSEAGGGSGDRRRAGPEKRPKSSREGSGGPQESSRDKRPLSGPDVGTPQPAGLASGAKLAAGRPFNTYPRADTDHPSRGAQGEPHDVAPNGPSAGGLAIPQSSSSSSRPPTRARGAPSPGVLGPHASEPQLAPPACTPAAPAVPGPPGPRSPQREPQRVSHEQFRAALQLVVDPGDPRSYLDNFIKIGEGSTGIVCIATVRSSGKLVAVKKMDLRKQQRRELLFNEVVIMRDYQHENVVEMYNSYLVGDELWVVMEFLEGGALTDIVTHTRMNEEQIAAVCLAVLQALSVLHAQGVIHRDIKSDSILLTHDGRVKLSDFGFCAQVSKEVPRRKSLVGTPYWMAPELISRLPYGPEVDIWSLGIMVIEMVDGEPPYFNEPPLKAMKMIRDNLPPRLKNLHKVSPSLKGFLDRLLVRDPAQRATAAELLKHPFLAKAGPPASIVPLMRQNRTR
PAK1, sequence (Q13153 whole entry): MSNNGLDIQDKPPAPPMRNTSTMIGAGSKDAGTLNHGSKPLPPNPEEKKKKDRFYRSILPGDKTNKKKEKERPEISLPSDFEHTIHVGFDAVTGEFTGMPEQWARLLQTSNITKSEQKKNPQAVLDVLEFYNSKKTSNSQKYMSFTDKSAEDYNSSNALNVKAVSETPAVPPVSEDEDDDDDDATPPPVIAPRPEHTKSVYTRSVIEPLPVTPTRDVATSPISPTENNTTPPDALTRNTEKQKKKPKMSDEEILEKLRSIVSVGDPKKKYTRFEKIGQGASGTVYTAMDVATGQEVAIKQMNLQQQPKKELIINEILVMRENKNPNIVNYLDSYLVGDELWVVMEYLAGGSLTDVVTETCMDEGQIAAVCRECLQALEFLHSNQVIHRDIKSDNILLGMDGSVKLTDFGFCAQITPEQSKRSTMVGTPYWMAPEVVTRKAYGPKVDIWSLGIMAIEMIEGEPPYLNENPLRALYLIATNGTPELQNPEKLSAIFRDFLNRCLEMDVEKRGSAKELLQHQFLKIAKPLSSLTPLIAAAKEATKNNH
PAK2, sequence (Q13177 whole entry): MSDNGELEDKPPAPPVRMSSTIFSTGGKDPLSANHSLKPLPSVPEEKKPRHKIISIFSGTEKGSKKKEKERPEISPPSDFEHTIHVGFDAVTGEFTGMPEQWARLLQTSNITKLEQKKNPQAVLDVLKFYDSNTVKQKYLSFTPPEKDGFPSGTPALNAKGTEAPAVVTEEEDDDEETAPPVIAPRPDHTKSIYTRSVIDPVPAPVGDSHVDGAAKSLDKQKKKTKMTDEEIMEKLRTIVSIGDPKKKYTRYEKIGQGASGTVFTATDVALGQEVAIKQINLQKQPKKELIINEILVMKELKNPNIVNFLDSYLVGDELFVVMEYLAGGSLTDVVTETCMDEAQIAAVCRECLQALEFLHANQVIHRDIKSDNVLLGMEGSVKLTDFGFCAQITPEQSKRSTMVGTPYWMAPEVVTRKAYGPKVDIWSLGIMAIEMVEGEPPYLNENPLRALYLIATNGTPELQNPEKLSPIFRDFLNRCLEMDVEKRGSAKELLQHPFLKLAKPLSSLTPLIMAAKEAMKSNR
PAK3, sequence (O75914 whole entry): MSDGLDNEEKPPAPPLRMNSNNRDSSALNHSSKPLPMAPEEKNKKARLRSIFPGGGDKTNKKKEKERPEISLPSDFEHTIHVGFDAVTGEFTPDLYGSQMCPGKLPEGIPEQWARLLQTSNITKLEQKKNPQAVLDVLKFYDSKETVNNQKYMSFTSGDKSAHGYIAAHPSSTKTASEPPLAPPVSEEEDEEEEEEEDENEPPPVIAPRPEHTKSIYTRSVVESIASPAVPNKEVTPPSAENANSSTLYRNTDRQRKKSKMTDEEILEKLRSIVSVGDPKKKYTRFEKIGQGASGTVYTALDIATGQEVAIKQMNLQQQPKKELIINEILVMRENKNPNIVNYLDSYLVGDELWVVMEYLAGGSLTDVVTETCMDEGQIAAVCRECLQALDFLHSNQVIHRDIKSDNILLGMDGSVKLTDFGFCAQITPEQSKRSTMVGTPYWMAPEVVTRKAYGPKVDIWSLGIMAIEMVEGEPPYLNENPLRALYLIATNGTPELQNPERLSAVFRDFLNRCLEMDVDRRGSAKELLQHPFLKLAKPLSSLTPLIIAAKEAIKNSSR

On to `CN1CCN(c2ccc(Nc3ncc4ccc(=O)n(Cc5ccccc5Br)c4n3)cc2)CC1` [Compound 27, 8-(2-bromobenzyl)-2-(4-(4-methylpiperazin-1-yl)phenylamino)pyrido[2,3-d]pyrimidin-7(8H)-one], for which the pIC50 at PAK1, at PAK2, on PAK3 and at PAK4 was above 6.00 each time. For the same compound, the “PAK inhibitor type (isoform profile)” value with PAK1, PAK2, PAK3, PAK-4 is “mixed PAK1/PAK2/PAK3/PAK-4 inhibitor”.
Consider `Cc1c(F)cccc1Cn1c(=O)ccc2cnc(Nc3ccc(N4CCN(C)CC4)cc3)nc21` [Compound 49], for which the pIC50 at PAK1 is above 6.00; on PAK2, 5.00 to 6.00; on PAK3 it was below 5.00; on PAK4 it was 5.00 to 6.00. The “PAK inhibitor type (isoform profile)” value with PAK1, PAK2, PAK3, PAK-4 is on record as “PAK1 inhibitor”.
Take `CN1CCN(c2ccc(Nc3ncc4ccc(=O)n(Cc5c(F)cccc5Cl)c4n3)cc2)CC1` [Compound 53]: the pIC50 at PAK1, on PAK2, on PAK3 and at PAK4 was above 6.00 throughout. In the assay on PAK1, PAK2, PAK3, PAK-4, the “PAK inhibitor type (isoform profile)” value is given as “mixed PAK1/PAK2/PAK3/PAK-4 inhibitor”.
In the case of `CN1CCN(c2ccc(Nc3ncc4ccc(=O)n(Cc5c(Cl)cccc5Cl)c4n3)cc2)CC1` [Compound 57], the pIC50 at PAK1 was above 6.00; at PAK2, above 6.00; on PAK3, 5.00 to 6.00; at PAK4, above 6.00. Further, the “PAK inhibitor type (isoform profile)” value in the assay on PAK1, PAK2, PAK3, PAK-4 was “mixed PAK1/PAK2/PAK-4 inhibitor”.
Take `CN1CCN(c2ccc(Nc3ncc4ccc(=O)n(Cc5c(F)cccc5F)c4n3)cc2)CC1` [Compound 58]: the pIC50 is above 6.00 on PAK1, 5.00 to 6.00 on PAK2, 5.00 to 6.00 on PAK3 and 5.00 to 6.00 at PAK4. Further, the “PAK inhibitor type (isoform profile)” value in the assay with PAK1, PAK2, PAK3, PAK-4 is “PAK1 inhibitor”.
With `Cc1ccc(F)cc1Cn1c(=O)ccc2cnc(Nc3ccc(N4CCN(C)CC4)cc3)nc21` [Compound 59], the pIC50 was above 6.00 on PAK1, 5.00 to 6.00 at PAK2, 5.00 to 6.00 on PAK3 and above 6.00 at PAK4. Besides, the “PAK inhibitor type (isoform profile)” value in the assay with PAK1, PAK2, PAK3, PAK-4 is “mixed PAK1/PAK-4 inhibitor”.
Consider `COc1cccc(F)c1Cn1c(=O)ccc2cnc(Nc3ccc(N4CCN(C)CC4)cc3)nc21` [Compound 61], for which the pIC50 on PAK1 is above 6.00; at PAK2, 5.00 to 6.00; at PAK3, 5.00 to 6.00; at PAK4, above 6.00. In addition, the “PAK inhibitor type (isoform profile)” value with PAK1, PAK2, PAK3, PAK-4 is “mixed PAK1/PAK-4 inhibitor”.
`O=c1ccc2cnc(Nc3ccc(N4CCNCC4)c(F)c3)nc2n1Cc1ccccc1C(F)(F)F` [Compound 62]: the negative logarithm of the IC50 (pIC50) at PAK1, on PAK2, at PAK3 and on PAK4 was above 6.00 throughout. In the assay with PAK1, PAK2, PAK3, PAK-4, the “PAK inhibitor type (isoform profile)” value is “mixed PAK1/PAK2/PAK3/PAK-4 inhibitor”.
`Cc1cccc(F)c1Cn1c(=O)ccc2cnc(Nc3ccc(N4CCN(C)CC4)cc3)nc21` [Compound 65]: the pIC50 on PAK1, on PAK2, on PAK3 and at PAK4 was above 6.00 in each case. Also, the “PAK inhibitor type (isoform profile)” value with PAK1, PAK2, PAK3, PAK-4 was “mixed PAK1/PAK2/PAK3/PAK-4 inhibitor”.
For `CN1CCN(c2ccc(Nc3ncc4ccc(=O)n(CCc5ccccc5C(F)(F)F)c4n3)cc2)CC1` [Compound 66], the pIC50 on PAK1 was above 6.00; on PAK2, above 6.00; on PAK3, 5.00 to 6.00; at PAK4 it was above 6.00. In the assay with PAK1, PAK2, PAK3, PAK-4, the “PAK inhibitor type (isoform profile)” value is “mixed PAK1/PAK2/PAK-4 inhibitor”.
Regarding `CN1CCN(c2ccc(Nc3ncc4ccc(=O)n(Cc5ccccc5-c5ccccc5)c4n3)cc2)CC1` [Compound 68], the pIC50 on PAK1 was above 6.00; on PAK2 it was above 6.00; on PAK3, above 6.00; on PAK4, 5.00 to 6.00. Further, the “PAK inhibitor type (isoform profile)” value in the assay on PAK1, PAK2, PAK3, PAK-4 was “inhibits all three Group I PAK isoforms (PAK1, 2 and PAK3) with equal or similar potency”.
`CC(C)Oc1ccccc1Cn1c(=O)ccc2cnc(Nc3ccc(N4CCN(C)CC4)cc3)nc21` [Compound 69]: the pIC50 at PAK1, on PAK2, at PAK3 and at PAK4 was above 6.00 each time. The “PAK inhibitor type (isoform profile)” value with PAK1, PAK2, PAK3, PAK-4 is listed as “mixed PAK1/PAK2/PAK3/PAK-4 inhibitor”.
`CN1CCN(c2ccc(Nc3ncc4ccc(=O)n(Cc5c(Cl)cccc5Br)c4n3)cc2)CC1` [Compound 71]: the pIC50 at PAK1, at PAK2, on PAK3 and on PAK4 was above 6.00 each time. The “PAK inhibitor type (isoform profile)” value in the assay with PAK1, PAK2, PAK3, PAK-4 was “mixed PAK1/PAK2/PAK3/PAK-4 inhibitor”.
`CN1CCN(c2ccc(Nc3ncc4ccc(=O)n(Cc5ccccc5S(C)(=O)=O)c4n3)cc2)CC1` [Compound 72]: the pIC50 at PAK1, on PAK2, at PAK3 and at PAK4 was above 6.00 each time. Further, in the assay with PAK1, PAK2, PAK3, PAK-4, the “PAK inhibitor type (isoform profile)” value was “mixed PAK1/PAK2/PAK3/PAK-4 inhibitor”.
Regarding `CN1CCN(c2ccc(Nc3ncc4ccc(=O)n(Cc5ccccc5N5CCOCC5)c4n3)cc2)CC1` [Compound 73], the pIC50 on PAK1, at PAK2, on PAK3 and on PAK4 was above 6.00 throughout. The “PAK inhibitor type (isoform profile)” value with PAK1, PAK2, PAK3, PAK-4 is reported as “mixed PAK1/PAK2/PAK3/PAK-4 inhibitor”.
With `CN1CCN(c2ccc(Nc3ncc4ccc(=O)n(Cc5ccccc5S(=O)(=O)N5CCOCC5)c4n3)cc2)CC1` [Compound 74], the pIC50 at PAK1, on PAK2, at PAK3 and on PAK4 was above 6.00 in each case. Further, in the assay on PAK1, PAK2, PAK3, PAK-4, the “PAK inhibitor type (isoform profile)” value is listed as “mixed PAK1/PAK2/PAK3/PAK-4 inhibitor”.
In the case of `Cc1noc(-c2ccccc2Cn2c(=O)ccc3cnc(Nc4ccc(N5CCN(C)CC5)cc4)nc32)n1` [Compound 75], the pIC50 at PAK1 is above 6.00; on PAK2, 5.00 to 6.00; on PAK3, 5.00 to 6.00; on PAK4 it was 5.00 to 6.00. The “PAK inhibitor type (isoform profile)” value in the assay with PAK1, PAK2, PAK3, PAK-4 is reported as “PAK1 inhibitor”.
As to `CN1CCN(c2ccc(Nc3ncc4ccc(=O)n(Cc5ccccc5-c5cccs5)c4n3)cc2)CC1` [Compound 77], the pIC50 was above 6.00 at PAK1, above 6.00 at PAK2, above 6.00 at PAK3 and 5.00 to 6.00 on PAK4. The “PAK inhibitor type (isoform profile)” value with PAK1, PAK2, PAK3, PAK-4 is “inhibits all three Group I PAK isoforms (PAK1, 2 and PAK3) with equal or similar potency”.
In the case of `O=c1ccc2cnc(Nc3ccc(N4CCNCC4)c(F)c3)nc2n1Cc1ccccc1-c1cccs1` [Compound 78], the pIC50 at PAK1, at PAK2, at PAK3 and on PAK4 was above 6.00 throughout. The “PAK inhibitor type (isoform profile)” value in the assay with PAK1, PAK2, PAK3, PAK-4 was “mixed PAK1/PAK2/PAK3/PAK-4 inhibitor”.
For `CN1CCN(c2ccc(Nc3ncc4ccc(=O)n(Cc5c(F)cccc5Br)c4n3)cc2)CC1` [Compound 79], the pIC50 at PAK1, at PAK2, at PAK3 and at PAK4 was above 6.00 each time. Further, in the assay with PAK1, PAK2, PAK3, PAK-4, the “PAK inhibitor type (isoform profile)” value is “mixed PAK1/PAK2/PAK3/PAK-4 inhibitor”.
As for `Cc1noc(-c2ccccc2Cn2c(=O)ccc3cnc(Nc4ccc(N5CCNCC5)c(F)c4)nc32)n1` [Compound 80], the pIC50 at PAK1 is above 6.00; at PAK2, 5.00 to 6.00; on PAK3, 5.00 to 6.00; at PAK4, 5.00 to 6.00. Besides, in the assay with PAK1, PAK2, PAK3, PAK-4, the “PAK inhibitor type (isoform profile)” value is reported as “PAK1 inhibitor”.

For orientation: pIC50 means −log10 of the IC50, conventionally taken in molar units.
